Assay [1] addresses SOS1:KRAS (G12C) interaction (Homo sapiens (Human), UniProt Q07889). Nature of the assay: SOS1 KRas(G12C) FRET Assay. Type of assay: binding. The conditions noted are these: 0.5 nM His10-SOS1 (res. 564-1049), 2.5 nM GST-KRAS G12C (res. 1-169), 2 hrs at RT. Summed up: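 GST-KRAS G12C (res. 1-169) at 2.5 nM and His10-SOS1 (res. 564-1049) at 0.5 nM, final, in PBS with 0.1% BSA, 5 mM MgCl2, 100 mM KF, 5 mM DTT and 0.5% DMSO. After 2 h at RT, FRET read at 665/615 nm and normalized to DMSO and no-SOS1 controls. IC50 by non-linear regression.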

In assay [2] the target is human SOS1 (Homo sapiens (Human), UniProt Q07889). Nature of the assay: Surface Plasmon Resonance (SPR) SOS1 Binding Assay. Particulars: biotinylated SOS1 (res. 564-1049), Biacore 8K, 25° C., kinetic or steady state fit, 1:1 binding; read-out: hSOS1 KD. The gist of the method:
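Biotinylated Avi-tagged human SOS1 (res. 564-1049) captured on streptavidin chip (~3,000 RU); compounds injected 60 s, dissociation 600 s, at 25° C in Tris pH 8.0 buffer with 5% DMSO. Reference- and blank-subtracted; KD from kinetic or steady-state 1:1 binding fit.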

The molecule `C[C@@H](NC(=O)c1cn([C@@H]2CCOC[C@H]2F)c(=O)cc1N[C@H]1[C@@H]2CN(C)C[C@@H]21)c1cccc(C(F)F)c1F` [Example 128, N-((R)-1-(3-(difluoromethyl)-2-fluorophenyl)ethyl)-1-((3S,4R)-3-fluorotetrahydro-2H-pyran-4-yl)-4-(((1R,5S,6s)-3-methyl-3-azabicyclo[3.1.0]hexan-6-yl)amino)-6-oxo-1,6-dihydropyridine-3-carboxamide] had an IC50 in assay [1] of 8.2 nM. Further, in assay [2], the Kd turned out to be 3 nM.

In assay [1], `C[C@@H](NC(=O)c1cn([C@H]2CCOC[C@@H]2F)c(=O)cc1N[C@H]1[C@@H]2CN(C)C[C@@H]21)c1cccc(C(F)F)c1F` [Example 129, N-((R)-1-(3-(difluoromethyl)-2-fluorophenyl)ethyl)-1-((3R,4S)-3-fluorotetrahydro-2H-pyran-4-yl)-4-(((1R,5S,6s)-3-methyl-3-azabicyclo[3.1.0]hexan-6-yl)amino)-6-oxo-1,6-dihydropyridine-3-carboxamide] displayed an IC50 of 25 nM. Moreover, in assay [2], the Kd is 8 nM.

Consider `C[C@@H](NC(=O)c1cn(C2(C(F)F)CC2)c(=O)cc1N[C@H]1[C@@H]2CN(C)C[C@@H]21)c1cccc(C(F)(F)F)c1F` [Example 130, 1-(1-(difluoromethyl)cyclopropyl)-N-((R)-1-(2-fluoro-3-(trifluoromethyl)phenyl)ethyl)-4-(((1R,5S,6s)-3-methyl-3-azabicyclo[3.1.0]hexan-6-yl)amino)-6-oxo-1,6-dihydropyridine-3-carboxamide], for which, in assay [1], 26.7 nM corresponded to half-maximal inhibition (IC50). Further, the Kd in assay [2] came out at 23 nM.

Turning to `C[C@@H](NC(=O)c1cn(C2(C(F)F)CCC2)c(=O)cc1N[C@H]1[C@@H]2CN(C)C[C@@H]21)c1cccc(C(F)F)c1F` [Example 131, N-((R)-1-(3-(difluoromethyl)-2-fluorophenyl)ethyl)-1-(1-(difluoromethyl)cyclobuty 1)-4-(((1R,5S,6s)-3-methyl-3-azabicyclo[3.1.0]hexan-6-yl)amino)-6-oxo-1,6-dihydropyridine-3-carboxamide], the IC50 in assay [1] is 22.1 nM. Moreover, the Kd in assay [2] was 17 nM.

Molecule `C[C@@H](NC(=O)c1cn(C23CCC(CC2)C3)c(=O)cc1N[C@H]1[C@@H]2CN(C)C[C@@H]21)c1cccc(C(F)F)c1F` [Example 132, 1-(bicyclo[2.2.1]heptan-1-yl)-N-((R)-1-(3-(difluoromethyl)-2-fluorophenyl)ethyl)-4-(((1R,5S,6s)-3-methyl-3-azabicyclo[3.1.0]hexan-6-yl)amino)-6-oxo-1,6-dihydropyridine-3-carboxamide] had an IC50 in assay [1] of 10.3 nM. The Kd in assay [2] turned out to be 8 nM.

Molecule `C[C@@H](NC(=O)c1cn(C23CC(C2)C3)c(=O)cc1N[C@H]1C[C@@H](N(C)C)C1)c1cccc(C(F)F)c1F` [Example 133, 1-(bicyclo[1.1.1]pentan-1-yl)-N-((R)-1-(3-(difluoromethyl)-2-fluorophenyl)ethyl)-4-(((1s,3S)-3-(dimethylamino)cyclobuty 1)amino)-6-oxo-1,6-dihydropyridine-3-carboxamide] came in with a concentration for half-maximal inhibition (IC50) in assay [1] of 23.2 nM. Besides, the Kd in assay [2] is 11 nM.

For `C[C@@H](NC(=O)c1cn(C23CC(F)(C2)C3)c(=O)cc1NC1[C@@H]2CC[C@H]1CN(C)C2)c1cccc(C(F)F)c1F` (stereo partly drawn) [Example 136, N-((R)-1-(3-(difluoromethyl)-2-fluorophenyl)ethyl)-1-(3-fluorobicyclo[1.1.1]pentan-1-yl)-4-(((1R,SS,8s)-3-methyl-3-azabicyclo[3.2.1]octan-8-yl)amino)-6-oxo-1,6-dihydropyridine-3-carboxamide], the IC50 in assay [1] came to 6 nM. Further, the Kd in assay [2] was found to be 3 nM.

In the case of `C[C@@H](NC(=O)c1cn(C23CC(F)(C2)C3)c(=O)cc1NC1[C@@H]2CC[C@H]1CN(C)C2)c1cccc(C(F)F)c1F` (stereo partly drawn) [Example 137, N-((R)-1-(3-(difluoromethyl)-2-fluorophenyl)ethyl)-1-(3-fluorobicyclo[1.1.1]pentan-1-yl)-4-(((1R,5S,8r)-3-methyl-3-azabicyclo[3.2.1]octan-8-yl)amino)-6-oxo-1,6-dihydropyridine-3-carboxamide], the IC50 in assay [1] is 35.3 nM. The Kd in assay [2] was determined as 27 nM.

Regarding `C[C@@H](NC(=O)c1cn(C23CC(F)(C2)C3)c(=O)cc1N[C@H]1CCN(C)C[C@H]1F)c1cccc(C(F)F)c1F` [Example 142, N-((R)-1-(3-(difluoromethyl)-2-fluorophenyl)ethyl)-4-(((3R,4S)-3-fluoro-1-methylpiperidin-4-yl)amino)-1-(3-fluorobicyclo[1.1.1]pentan-1-yl)-6-oxo-1,6-dihydropyridine-3-carboxamide], the IC50 in assay [1] turned out to be 4.9 nM. Further, the Kd in assay [2] was found to be 4 nM.

In assay [1], `C[C@@H](NC(=O)c1cn(C23CC(F)(C2)C3)c(=O)cc1N[C@@H]1CCN(C)C[C@@H]1F)c1cccc(C(F)F)c1F` [Example 143, N-((R)-1-(3-(difluoromethyl)-2-fluorophenyl)ethyl)-4-(((3S,4R)-3-fluoro-1-methylpiperidin-4-yl)amino)-1-(3-fluorobicyclo[1.1.1]pentan-1-yl)-6-oxo-1,6-dihydropyridine-3-carboxamide] had an IC50 of 3.8 nM. In addition, the Kd in assay [2] worked out at 3 nM.

In the case of `C[C@@H](NC(=O)c1cn([C@H]2CCC2(F)F)c(=O)cc1NCC1(F)CN(C)C1)c1cccc(C(F)F)c1F` [Example 146, 1-((S)-2,2-difluorocyclobutyl)-N-((R)-1-(3-(difluoromethyl)-2-fluorophenyl)ethyl)-4-(((3-fluoro-1-methylazetidin-3-yl)methyl)amino)-6-oxo-1,6-dihydropyridine-3-carboxamide], it took 5.4 nM to reach half-maximal inhibition in assay [1] (IC50). Moreover, in assay [2], the Kd is 9 nM.

`C[C@@H](NC(=O)c1cn([C@@H]2CCC2(F)F)c(=O)cc1NCC1(F)CN(C)C1)c1cccc(C(F)F)c1F` [Example 147, 1-((R)-2,2-difluorocyclobutyl)-N-((R)-1-(3-(difluoromethyl)-2-fluorophenyl)ethyl)-4-(((3-fluoro-1-methylazetidin-3-yl)methyl)amino)-6-oxo-1,6-dihydropyridine-3-carboxamide] had an IC50 in assay [1] of 45 nM. For the same molecule, the Kd in assay [2] is 73 nM.

Regarding `C[C@@H](NC(=O)c1cn([C@]2(C)CCOC2)c(=O)cc1N[C@H]1[C@@H]2CN(C)C[C@@H]21)c1cccc(C(F)F)c1F` [Example 152, N-((R)-1-(3-(difluoromethyl)-2-fluorophenyl)ethyl)-4-(((1R,5S,6s)-3-methyl-3-azabicyclo[3.1.0]hexan-6-yl)amino)-1-((R)-3-methyltetrahydrofuran-3-yl)-6-oxo-1,6-dihydropyridine-3-carboxamide], the IC50 in assay [1] is 7.4 nM. In assay [2], the equilibrium dissociation constant (Kd) was 4 nM.

In assay [1], `CO[C@H]1CN(C)CC[C@H]1Nc1cc(=O)n(C2(C(F)F)CC2)cc1C(=O)N[C@H](C)c1cccc(C(F)F)c1F` [Example 153, N-((R)-1-(3-(difluoromethyl)-2-fluorophenyl)ethyl)-1-(1-(difluoromethyl)cyclopropyl)-4-(((3S,4R)-3-methoxy-1-methylpiperidin-4-yl)amino)-6-oxo-1,6-dihydropyridine-3-carboxamide] displayed an IC50 of 58.4 nM. For the same molecule, the Kd in assay [2] came to 25 nM.

`CO[C@@H]1CN(C)CC[C@@H]1Nc1cc(=O)n(C2(C(F)F)CC2)cc1C(=O)N[C@H](C)c1cccc(C(F)F)c1F` [Example 154, N-((R)-1-(3-(difluoromethyl)-2-fluorophenyl)ethyl)-1-(1-(difluoromethyl)cyclopropyl)-4-(((3R,4S)-3-methoxy-1-methylpiperidin-4-yl)amino)-6-oxo-1,6-dihydropyridine-3-carboxamide] registered a 50% inhibitory concentration (IC50) in assay [1] of 37.6 nM. For the same molecule, the Kd in assay [2] is 23 nM.

In the case of `C[C@@H](NC(=O)c1cn(C23CC(C2)C3)c(=O)cc1N[C@H]1CN2CCC1CC2)c1cccc(C(F)F)c1F` [Example 155, 1-(bicyclo[1.1.1]pentan-1-yl)-N-((R)-1-(3-(difluoromethyl)-2-fluorophenyl)ethyl)-6-oxo-4-(((R)-quinuclidin-3-yl)amino)-1,6-dihydropyridine-3-carboxamide], the IC50 in assay [1] is 21.2 nM. In addition, in assay [2], the Kd turned out to be 11 nM.

Turning to `C[C@@H](NC(=O)c1cn(C23CC(C2)C3)c(=O)cc1N[C@@H]1CN2CCC1CC2)c1cccc(C(F)F)c1F` [Example 156, 1-(bicyclo[1.1.1]pentan-1-yl)-N-((R)-1-(3-(difluoromethyl)-2-fluorophenyl)ethyl)-6-oxo-4-(((S)-quinuclidin-3-yl)amino)-1,6-dihydropyridine-3-carboxamide], the IC50 in assay [1] was found to be 12.4 nM. Moreover, the Kd in assay [2] was 3 nM.

In turn, “N-((R)-1-(2-fluoro-3- (trifluoromethyl)phenyl)et hyl)-4-(((1R,5S,6s)-3- methyl-3- azabicyclo[3.1.0]hexan-6- yl)amino)-6-oxo-1-(1- (trifluoromethyl)cycloprop yl)-1,6-dihydropyridine-3- carboxamide [Example 120]” came in with an IC50 in assay [1] of 35.7 nM. In addition, the dissociation constant (Kd) in assay [2] worked out at 24 nM.

Molecule “N-((R)-1-(3-(difluoromethyl)-2-fluorophenyl)ethyl)-1-(1- (difluoromethyl)cyclopropyl)-4-(((1R,5S,6s)-3-methyl-3-azabicyclo[3.1.0]hexan-6-yl)amino)-6- oxo-1,6-dihydropyridine-3-carboxamide [Example 55]” gave an IC50 in assay [1] of 23.6 nM. In addition, in assay [2], the Kd was determined as 12 nM.

(Values after US20230348424A1, “HETEROCYCLIC COMPOUNDS AND METHODS OF USE” (Schrödinger, Inc., priority 2022, published 2023).)
